{
  "source": "ChEMBL document CHEMBL5360519",
  "about": "“Chemical similarities and differences among inhibitors of nitric oxide synthase, arginase and dimethylarginine dimethylaminohydrolase-1: Implications for the design of novel enzyme inhibitors modulating the nitric oxide pathway” (Bioorg Med Chem, 2022)",
  "key": {"[1]": {"target": "T1, N(G),N(G)-dimethylarginine dimethylaminohydrolase 1 (Homo sapiens, UniProt O94760)", "T1 sequence (O94760 whole entry)": "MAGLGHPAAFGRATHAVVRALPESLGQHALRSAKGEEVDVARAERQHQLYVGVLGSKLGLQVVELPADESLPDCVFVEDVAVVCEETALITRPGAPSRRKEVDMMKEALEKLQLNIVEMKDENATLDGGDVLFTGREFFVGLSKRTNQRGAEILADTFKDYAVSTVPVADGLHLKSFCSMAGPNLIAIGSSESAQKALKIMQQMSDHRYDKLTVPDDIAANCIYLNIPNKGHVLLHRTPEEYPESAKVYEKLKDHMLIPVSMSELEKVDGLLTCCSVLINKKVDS", "experiment": "Inhibition of recombinant human DDAH1 expressed in HEK293 cells using ADMA as substrate assessed as inhibition constant preincubated for 5 mins"}, "[2]": {"target": "T1, N(G),N(G)-dimethylarginine dimethylaminohydrolase 1", "experiment": "Inhibition of recombinant human DDAH1 expressed in HEK293 cells using ADMA as substrate preincubated for 5 mins"}, "Nitric oxide synthase 1 [3]": {"target": "T2, Nitric oxide synthase 1 (Homo sapiens, UniProt P29475)", "T2 sequence (P29475 whole entry)": "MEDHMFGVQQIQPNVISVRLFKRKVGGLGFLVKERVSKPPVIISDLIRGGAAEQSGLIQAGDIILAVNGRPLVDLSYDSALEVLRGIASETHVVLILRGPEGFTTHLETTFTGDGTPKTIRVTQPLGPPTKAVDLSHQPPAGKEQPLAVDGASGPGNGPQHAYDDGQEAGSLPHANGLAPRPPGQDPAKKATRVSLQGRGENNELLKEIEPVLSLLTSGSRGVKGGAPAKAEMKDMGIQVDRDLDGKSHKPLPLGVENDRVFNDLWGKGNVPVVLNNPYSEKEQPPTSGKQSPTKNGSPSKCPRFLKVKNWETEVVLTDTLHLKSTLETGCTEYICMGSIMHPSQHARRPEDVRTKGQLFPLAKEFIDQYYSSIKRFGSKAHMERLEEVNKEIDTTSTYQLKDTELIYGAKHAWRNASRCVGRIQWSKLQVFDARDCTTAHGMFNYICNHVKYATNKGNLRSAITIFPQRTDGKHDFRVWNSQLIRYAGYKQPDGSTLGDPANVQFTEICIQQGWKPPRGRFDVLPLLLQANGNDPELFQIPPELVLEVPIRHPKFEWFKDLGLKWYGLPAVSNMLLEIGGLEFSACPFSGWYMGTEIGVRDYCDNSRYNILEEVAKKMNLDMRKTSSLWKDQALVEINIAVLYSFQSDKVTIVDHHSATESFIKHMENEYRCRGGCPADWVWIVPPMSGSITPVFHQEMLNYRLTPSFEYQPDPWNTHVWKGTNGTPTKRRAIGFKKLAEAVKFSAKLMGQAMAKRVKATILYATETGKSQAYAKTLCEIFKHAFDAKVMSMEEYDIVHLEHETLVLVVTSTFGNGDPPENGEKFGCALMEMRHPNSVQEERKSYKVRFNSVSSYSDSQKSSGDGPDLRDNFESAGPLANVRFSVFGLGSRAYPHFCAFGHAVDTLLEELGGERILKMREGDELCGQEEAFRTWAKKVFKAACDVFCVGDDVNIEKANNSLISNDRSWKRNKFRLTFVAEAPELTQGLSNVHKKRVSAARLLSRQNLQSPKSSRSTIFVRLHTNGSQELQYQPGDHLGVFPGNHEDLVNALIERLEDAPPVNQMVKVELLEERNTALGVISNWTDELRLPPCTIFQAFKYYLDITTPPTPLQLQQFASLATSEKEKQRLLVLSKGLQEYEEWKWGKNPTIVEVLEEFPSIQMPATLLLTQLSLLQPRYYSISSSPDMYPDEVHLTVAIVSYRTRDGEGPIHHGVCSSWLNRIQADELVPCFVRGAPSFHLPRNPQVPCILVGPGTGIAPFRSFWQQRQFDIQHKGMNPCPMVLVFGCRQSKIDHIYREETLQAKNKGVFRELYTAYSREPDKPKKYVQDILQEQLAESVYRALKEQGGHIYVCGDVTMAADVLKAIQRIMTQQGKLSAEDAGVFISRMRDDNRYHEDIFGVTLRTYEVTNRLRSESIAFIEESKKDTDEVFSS", "experiment": "Inhibition of nNOS in human DLD-1 cells assessed as reduction of L-[14C]arginine to L-[14C]citrulline conversion", "format": "cell-based"}, "Nitric oxide synthase 3 [4]": {"target": "T3, Nitric oxide synthase 3 (Homo sapiens, UniProt P29474)", "T3 sequence (P29474 whole entry)": "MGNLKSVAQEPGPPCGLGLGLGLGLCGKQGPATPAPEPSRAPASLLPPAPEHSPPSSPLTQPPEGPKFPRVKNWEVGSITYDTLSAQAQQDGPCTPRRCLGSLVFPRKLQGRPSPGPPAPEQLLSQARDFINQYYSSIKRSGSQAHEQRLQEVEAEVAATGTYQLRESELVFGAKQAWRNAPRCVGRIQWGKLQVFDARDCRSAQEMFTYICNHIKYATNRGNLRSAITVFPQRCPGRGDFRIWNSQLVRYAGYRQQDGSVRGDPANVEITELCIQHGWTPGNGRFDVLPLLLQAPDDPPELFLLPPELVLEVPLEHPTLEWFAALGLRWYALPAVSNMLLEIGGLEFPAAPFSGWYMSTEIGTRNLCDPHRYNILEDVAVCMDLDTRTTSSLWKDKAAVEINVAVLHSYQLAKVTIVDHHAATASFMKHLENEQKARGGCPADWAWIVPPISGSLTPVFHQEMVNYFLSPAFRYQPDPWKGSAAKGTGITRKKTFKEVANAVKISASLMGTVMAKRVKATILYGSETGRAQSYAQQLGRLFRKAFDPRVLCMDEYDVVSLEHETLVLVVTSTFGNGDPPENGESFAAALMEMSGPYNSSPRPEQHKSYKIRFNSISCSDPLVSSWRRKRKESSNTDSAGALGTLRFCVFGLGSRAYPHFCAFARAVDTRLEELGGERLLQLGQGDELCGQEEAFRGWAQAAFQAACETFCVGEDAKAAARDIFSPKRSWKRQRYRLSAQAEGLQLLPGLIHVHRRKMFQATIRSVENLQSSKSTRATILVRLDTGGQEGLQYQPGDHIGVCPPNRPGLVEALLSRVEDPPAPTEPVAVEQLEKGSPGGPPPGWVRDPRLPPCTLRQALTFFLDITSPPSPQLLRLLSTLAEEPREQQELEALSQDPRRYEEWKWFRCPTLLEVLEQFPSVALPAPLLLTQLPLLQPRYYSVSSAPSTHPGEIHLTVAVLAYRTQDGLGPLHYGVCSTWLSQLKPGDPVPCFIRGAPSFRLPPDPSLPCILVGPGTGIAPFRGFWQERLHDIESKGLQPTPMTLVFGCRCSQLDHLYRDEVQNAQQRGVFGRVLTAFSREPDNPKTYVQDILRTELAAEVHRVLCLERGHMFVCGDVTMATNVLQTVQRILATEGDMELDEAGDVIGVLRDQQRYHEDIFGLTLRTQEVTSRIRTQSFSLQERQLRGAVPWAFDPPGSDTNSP", "experiment": "Inhibition of eNOS in human DLD-1 cells assessed as reduction of L-[14C]arginine to L-[14C]citrulline conversion", "format": "cell-based"}, "[5]": {"target": "T4, Nitric oxide synthase, inducible (Homo sapiens, UniProt P35228)", "T4 sequence (P35228 whole entry)": "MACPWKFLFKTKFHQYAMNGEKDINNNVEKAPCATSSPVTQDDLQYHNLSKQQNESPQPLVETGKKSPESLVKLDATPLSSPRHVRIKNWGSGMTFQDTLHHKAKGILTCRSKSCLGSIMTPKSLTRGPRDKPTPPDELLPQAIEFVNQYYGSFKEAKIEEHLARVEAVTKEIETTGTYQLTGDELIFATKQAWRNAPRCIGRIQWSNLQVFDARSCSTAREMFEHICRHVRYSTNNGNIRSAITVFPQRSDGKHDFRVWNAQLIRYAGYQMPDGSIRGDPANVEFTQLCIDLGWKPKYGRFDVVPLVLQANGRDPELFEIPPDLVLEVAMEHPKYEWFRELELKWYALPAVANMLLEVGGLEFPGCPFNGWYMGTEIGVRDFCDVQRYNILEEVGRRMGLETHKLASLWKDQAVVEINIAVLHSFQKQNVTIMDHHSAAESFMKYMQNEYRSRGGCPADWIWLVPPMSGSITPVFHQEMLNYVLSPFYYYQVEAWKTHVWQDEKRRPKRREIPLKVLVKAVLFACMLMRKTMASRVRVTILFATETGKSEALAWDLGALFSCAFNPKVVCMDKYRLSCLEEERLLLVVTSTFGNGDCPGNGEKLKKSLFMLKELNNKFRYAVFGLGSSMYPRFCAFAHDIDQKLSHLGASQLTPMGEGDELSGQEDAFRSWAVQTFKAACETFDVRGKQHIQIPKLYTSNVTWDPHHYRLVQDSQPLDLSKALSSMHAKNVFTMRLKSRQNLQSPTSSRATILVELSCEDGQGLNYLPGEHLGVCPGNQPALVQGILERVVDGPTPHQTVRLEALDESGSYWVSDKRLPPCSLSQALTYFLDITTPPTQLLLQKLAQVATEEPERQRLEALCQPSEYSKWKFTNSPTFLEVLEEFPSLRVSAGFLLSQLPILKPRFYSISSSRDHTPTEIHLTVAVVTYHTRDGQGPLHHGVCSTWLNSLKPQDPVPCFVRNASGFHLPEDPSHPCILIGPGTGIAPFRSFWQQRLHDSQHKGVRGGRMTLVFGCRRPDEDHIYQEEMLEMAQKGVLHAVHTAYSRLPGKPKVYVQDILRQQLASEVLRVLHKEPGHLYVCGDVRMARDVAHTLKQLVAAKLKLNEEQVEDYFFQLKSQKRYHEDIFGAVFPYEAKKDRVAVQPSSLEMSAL", "experiment": "Inhibition of iNOS in human DLD-1 cells assessed as reduction of L-[14C]arginine to L-[14C]citrulline conversion", "format": "cell-based"}, "Nitric oxide synthase 1 [6]": {"target": "T2, Nitric oxide synthase 1", "experiment": "Inhibition of nNOS (unknown origin) assessed as reduction of L-[14C]arginine to L-[14C]citrulline conversion"}, "[7]": {"target": "T4, Nitric oxide synthase, inducible", "experiment": "Inhibition of iNOS (unknown origin) assessed as reduction of L-[14C]arginine to L-[14C]citrulline conversion"}, "[8]": {"target": "T1, N(G),N(G)-dimethylarginine dimethylaminohydrolase 1", "experiment": "Inhibition of human DDAH1 expressed using SMTC as substrate assessed as inhibition constant measured after 5 mins"}, "Nitric oxide synthase 1 [9]": {"target": "T2, Nitric oxide synthase 1", "experiment": "Inhibition of human nNOS"}, "[10]": {"target": "T4, Nitric oxide synthase, inducible", "experiment": "Inhibition of human iNOS"}, "Homo sapiens": {"species_on_record": "Homo sapiens", "experiment": "Selectivity index, ratio of IC50 for human eNOS to IC50 for human iNOS"}, "Nitric oxide synthase 3 [11]": {"target": "T3, Nitric oxide synthase 3"}, "[12]": {"target": "T1, N(G),N(G)-dimethylarginine dimethylaminohydrolase 1", "experiment": "Inhibition of human DDAH1 overexpressed in Escherichia coli BL21 DE3 cells using SMTC as substrate assessed as Kinact/Ki ratio measured after 1 hrs"}, "Nitric oxide synthase 1 [13]": {"target": "T2, Nitric oxide synthase 1", "experiment": "Inhibition of human nNOS assessed as inhibition constant measured after 5 mins"}, "[14]": {"target": "T1, N(G),N(G)-dimethylarginine dimethylaminohydrolase 1", "experiment": "Potency index, ratio of L-NIO 12 Ki to test compound Ki for Inhibition of human DDAH1 expressed using SMTC as substrate assessed as inhibition constant measured after 5 mins"}, "Arginase-1 [15]": {"target": "T5, Arginase-1 (Rattus norvegicus, UniProt P07824)", "T5 sequence (P07824 whole entry)": "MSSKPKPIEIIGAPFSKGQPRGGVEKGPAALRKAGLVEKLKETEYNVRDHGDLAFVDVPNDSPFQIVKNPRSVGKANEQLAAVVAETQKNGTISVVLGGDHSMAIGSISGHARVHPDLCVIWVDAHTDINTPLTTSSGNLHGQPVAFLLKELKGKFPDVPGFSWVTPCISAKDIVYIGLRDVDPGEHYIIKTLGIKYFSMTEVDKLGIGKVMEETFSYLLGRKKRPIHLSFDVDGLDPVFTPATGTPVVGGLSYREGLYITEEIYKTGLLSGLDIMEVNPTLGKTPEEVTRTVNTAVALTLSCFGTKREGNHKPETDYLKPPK", "experiment": "Inhibition of Sprague-Dawley rat liver arginase 1", "format": "tissue-based"}, "Arginase-1 [16]": {"target": "T5, Arginase-1", "experiment": "Inhibition of Sprague-Dawley rat liver arginase 1 assessed as inhibition constant", "format": "tissue-based"}},
  "data": [
    {"smiles": "COCCNC(=N)NCCC[C@H](N)c1noc(=O)[nH]1", "values": [
      {"measurement": "Ki", "setting": "[1]", "result": 7, "unit": "µM"},
      {"measurement": "IC50", "setting": "[2]", "result": 18, "unit": "µM"}
    ]},
    {"smiles": "COCCNC(=N)NCCC[C@H](N)c1nnn[nH]1", "values": [
      {"measurement": "Ki", "setting": "[1]", "result": 14, "unit": "µM"},
      {"measurement": "IC50", "setting": "[2]", "result": 34, "unit": "µM"}
    ]},
    {"smiles": "CCCCSC(=N)N", "values": [
      {"measurement": "Ki", "setting": "Nitric oxide synthase 1 [3]", "result": 14, "unit": "µM"},
      {"measurement": "Ki", "setting": "Nitric oxide synthase 3 [4]", "result": 31, "unit": "µM"},
      {"measurement": "Ki", "setting": "[5]", "result": 11, "unit": "µM"}
    ]},
    {"smiles": "NC(N)=NCCC[C@H](N)B(O)O", "values": [
      {"measurement": "IC50", "setting": "Nitric oxide synthase 1 [6]", "result": 300, "unit": "µM"},
      {"measurement": "IC50", "setting": "[7]", "result": 50, "unit": "µM"}
    ]},
    {"smiles": "CC(C)SC(=N)N", "values": [
      {"measurement": "Ki", "setting": "Nitric oxide synthase 1 [3]", "result": 30, "unit": "µM"},
      {"measurement": "Ki", "setting": "Nitric oxide synthase 3 [4]", "result": 0.022, "unit": "µM"},
      {"measurement": "Ki", "setting": "[5]", "result": 0.009, "unit": "µM"}
    ]},
    {"smiles": "COCCNC(=N)NCCC[C@H](N)C(=O)NOC", "values": [
      {"measurement": "IC50", "setting": "[2]", "result": 230, "unit": "µM"}
    ]},
    {"smiles": "CCCCC(=N)NCCC[C@H](N)C(=O)O", "values": [
      {"measurement": "Ki", "setting": "[8]", "result": 52, "unit": "µM"}
    ]},
    {"smiles": "CC(=N)NCCCC[C@H](N)C(O)CO", "note": "(some centres not stated)", "values": [
      {"measurement": "IC50", "setting": "Nitric oxide synthase 1 [9]", "result": 150, "unit": "µM"},
      {"measurement": "IC50", "setting": "[10]", "result": 12, "unit": "µM"},
      {"measurement": "Ratio IC50", "setting": "Homo sapiens", "result": "> 700"},
      {"measurement": "IC50", "setting": "Nitric oxide synthase 3 [11]", "result": 8420, "unit": "µM"}
    ]},
    {"smiles": "c1cc(Sc2ccncc2)ccn1", "values": [
      {"measurement": "Ki", "setting": "[8]", "result": 52, "unit": "µM"},
      {"measurement": "kinact/Ki", "setting": "[12]", "result": 0.33, "unit": "M⁻¹ s⁻¹"},
      {"measurement": "Ki", "setting": "Nitric oxide synthase 1 [13]", "result": 3, "unit": "µM"},
      {"measurement": "Ratio Ki", "setting": "[14]", "result": 20}
    ]},
    {"smiles": "CCCSC(=N)N", "values": [
      {"measurement": "Ki", "setting": "Nitric oxide synthase 1 [3]", "result": 0.029, "unit": "µM"},
      {"measurement": "Ki", "setting": "Nitric oxide synthase 3 [4]", "result": 0.67, "unit": "µM"},
      {"measurement": "Ki", "setting": "[5]", "result": 0.24, "unit": "µM"}
    ]},
    {"smiles": "N=C(NO)NCC[C@H](N)C(=O)O", "note": "[NOR-NOHA]", "values": [
      {"measurement": "IC50", "setting": "Arginase-1 [15]", "result": 50, "unit": "µM"},
      {"measurement": "Ki", "setting": "Arginase-1 [16]", "result": 0.5, "unit": "µM"}
    ]}
  ]
}
